Experimental data taken from patent US20240207240A1, “Method for Improving or Treating Cognitive Dysfunction Complicating HIV-associated Cryptococcal Meningitis with Lenalidomide” (The First Affiliated Hospital Zhejiang University School of …, priority 2022, published 2024).
“And” between values parts separate entries of the source, which are not always exact repeats. Equal entries are not always repeated. Where two headings read alike, the source gives them in different places.

Legend:
[1] = tested on: patients with cognitive dysfunction caused by HIV-associated CM-IRIS; assay: overall cognitive status by MoCA and IHDS scales; format: in vivo, human; conditions: of 7 patients treated with lenalidomide
Experimental: FIGS. 2A and 2B show results of treating patients with HIV-associated CM who still develop cognitive dysfunction after completing the anti-cryptococcal induction treatment. The patients are treated with lenalidomide. In the treatment, lenalidomide is administered at 25 mg/day for immuno-modulation for a total of 6 treatment cycles, with each cycle including 21 days of lenalidomide administration followed by 7 days of no lenalidomide. The patients are further assigned to a cognitive improvement group and a cognitive non-improvement group. […] FIG. 2A compares CSF biochemistry in the cognitive improvement group and cognitive non-improvement group before and after treatment.
Definition of cognitive dysfunction: The Chinese version of the Montreal Cognitive Assessment (MoCA) shown in Table 1, International HIV Dementia Scale (IHDS) shown in Table 2, and Center for Epidemiological Research Depression Scale (CES-D) are used to assess patients' cognitive status. They all use Chinese questionnaires that have been validated for the evaluation of Chinese patients. The MoCA tests eight major neurocognitive domains, including short-term memory recall (no score), visuospatial ability, naming, attention, language, conceptual thinking, working memory, and orientation of time and place. […]

[2] = withdrawal for adverse event in the lenalidomide treatment cohort; format: in vivo, human; conditions: of 8 patients with cognitive dysfunction at enrollment
Experimental: Screening process: 14 patients were included in the lenalidomide treatment cohort based on the inclusion and exclusion criteria: 8 had cognitive dysfunction at the time of enrollment. Among them, one patient withdrew from the study due to skin allergy, so only 7 patients were followed up for 24 weeks.
Lenalidomide Treatment: Patients were treated with six cycles of lenalidomide (one cycle: […] for 3 weeks, followed by 1 week ceased lenalidomide) when they were enrolled. The drug was stopped at the end of 6 cycles.

[3] = tested on: TNF-α; conditions: cited from earlier work
[4] = tested on: patients with cognitive dysfunction caused by HIV-associated CM-IRIS; assay: Center for Epidemiological Research Depression Scale (CES-D); format: in vivo, human; conditions: before vs after lenalidomide treatment
[5] = in vivo; cited from earlier work
[6] = tested on: patients with cognitive dysfunction caused by HIV-associated CM-IRIS; format: in vivo, human; conditions: for ΔIHDS: week 24 - week 0, median

Nc1cccc2c1CN(C1CCC(=O)NC1=O)C2=O (centres unmarked) [lenalidomide]
patients whose cognitive status returned to normal [1]: 4 patients | patients withdrawn from the study due to skin allergy [2]: one | inhibitory effect on TNF-α relative to thalidomide [3]: 2000 times | CES-D score for anxiety or depression, before to after treatment [4]: no significant difference | side effects [5]: milder than those of thalidomide | median IHDS score ([6]; W24, after 6 cycles lenalidomide, 7 patients, baseline 9.0 (2.5-10.5), P=0.028): 11.0 (10.0-12.0) | recall of the four items in the IHDS ([6]; W24, baseline 1.5 (1.0-3.5), P=0.042): 4.0 (2.0-4.0) | IHDS-W 24 ([6]; individual Patients 1-4 (cognitive improvement group)): 10 scores (2×) and 11 scores and 12 scores | IHDS-W 24 ([6]; individual Patients 5-7 (cognitive non-improvement group)): 12 scores (2×) and 10 scores | ΔIHDS ([6]; CI group): 5.25 scores | ΔIHDS ([6]; CNI group): 1.5 scores
